In EP2601963B1, “N-ISOVALEROYL-L-GLUTAMYL-L-TRYPTOPHAN AS AN AGENT INHIBITING THE FORMATION OF ULCERS IN THE STOMACH AND THE DUODENUM” (Obshestvo S Ogranichennoj Otvetstvennostju "CytoNIR", priority 2010, dated 2015):

Columns and labels:
[1] = system: indomethacin-induced gastric ulcers; experiment: Indomethacin-induced ulcer model, preventive treatment: gastric lesions; assay type: in vivo, male Wistar rats; set-up: key to GA1 (gastroprotective activity calculated for number of lesions): GA1 = Pauls Index of control / Pauls Index of treated group; key to GA2 (gastroprotective activity calculated for lesion size): GA2 = Ulcer Index of control / Ulcer Index of treated group; key to Ulcer Index: UI = mean lesion area in group x % animals with lesions / 100; Small round Size / Total Size / Large round Size / Linear Size / Lesion Size: unit not given here; settings: for # Lesions / % Animals with Ulcers / GA1 (gastroprotective activity calculated for number of lesions) / GA2 (gastroprotective activity calculated for lesion size) / Lesion Size / PI / Ulcer Index / Large round Amount / Large round Size / Linear Amount / Linear Size / Small round Amount / Small round Size / Total Amount / Total Size: preventive; for Large round Amount / Large round Size / Linear Amount / Linear Size / Small round Amount / Small round Size / Total Amount / Total Size: indomethacin-induced ulcers
Protocol: All studies were conducted on male Wistar rats weighing 220 ± 20 g, obtained from Rappolovo nursery (Leningrad oblast). For 14 days prior to the experiment, the animals were held in isolation. The animals were handled in accordance with the European Convention for the Protection of Vertebrate Animals used for Experimental and Other Scientific Purposes (Strasburg, 1986). The animals were held in standard plastic cages and fed a standard diet of PK120-3 (granulated feed in accordance with order # 1179 M3 USSR 10/10/1983) with a free access to water.
Animals' body weight changes were monitored throughout the experiment. The experimental animals were then sacrificed by decapitation, and their blood was collected in test tubes. The stomachs were extracted, dissected along the major curve, rinsed with cold saline solution, and the mucosa was carefully examined through a magnifying glass under bright lights. The mucosa was inspected for color, the presence of hyperemia and its intensity. The number of lesions, which were differentiated into small round (less than 1 mm), linear, and large lesions (more than 1mm) and the size of the area they covered were calculated. The average number of lesions per one animal in a group and the percentage of animals with ulcers were also calculated. Pauls Index (PI) was used as an integral indicator of the number of lesions and was calculated as follows: • PI = average number of lesions in a group x % of animals with lesions/100 [Pauls F., Wick A.M.,Mac. Key E.M. et al. An assau method for anti ulcer substances // Gastroenterology.- 1947. #8.- p.p.774 - 782]. Ulcer index UI was calculated as: UI = average lesion area size in the group x % of animals with lesions/100; gastroprotective activity GA1 was calculated as: GA1 = PI of the control group/PI of the experimental group, GA2 = UI of the control group/UI of the experimental group.
Five groups of 10 animals per group were prepared for the experiment as described in Example 1.
In each series of experiments, the animals were divided into experimental and control groups at 10 animals per group. The animals in the experimental group were orally administered the proposed medication or a comparator drug, and the control animals were given distilled water in the same amount. • control group received distilled water per os; • experimental group 1 received 0.1 mkg/kg N-isovaleroyl-L-glutamyl-L-tryptophan; • experimental group 2 received 10 mkg/kg N-isovaleroyl-L-glutamyl-L-tryptophan; • experimental group 3 received 200 mkg/kg of the comparator drug Sucralfate.
The efficacy of the course of preventive treatment with the claimed composition was evaluated 24 hrs. post indomethacin administration. The study was conducted as in Example 1.

[2] = Indomethacin-induced ulcer model, therapeutic: survival; assay type: in vivo, male Wistar rats; settings: Indomethacin 30 mg/kg
Protocol: 2 ml/kg of the ulcerogenic dose of indomethacin equal to 30 mg/kg was administered intraperitoneally. The treatment started 24 hrs. post indomethacin administration and continued for 5 days. The animals in the experimental groups received N-isovaleroyl-L-glutamyl-L-tryptophan or the comparator drug Sucralfate, and the control group received distilled water.
On the 5th day, only 7 out of 10 animals in the control group survived, while in the group receiving VGT 9 out of 10 survived.

[3] = 0.1 mkg/kg + Indomethacin 20 mg/kg
[4] = 10 mkg/kg + Indomethacin 20 mg/kg

Substance: N-isovaleroyl-L-glutamyl-L-tryptophan [VGT preparation]
- # Lesions [1, 3]: 7.5 ± 1.0
- % Animals with Ulcers [1, 3]: 100%
- GA1 (gastroprotective activity calculated for number of lesions) [1, 3]: 2.84
- GA2 (gastroprotective activity calculated for lesion size) [1, 3]: 5.51
- Lesion Size [1, 3]: 4.1 ± 0.9
- PI [1, 3]: 7.5
- Ulcer Index [1, 3]: 4.1
- Large round Amount ([1]; 0.1 mkg/kg): 2.7 ± 0.5
- Large round Size ([1]; 0.1 mkg/kg): 1.4 ± 0.3
- Linear Amount ([1]; 0.1 mkg/kg): 2.0 ± 0.7
- Linear Size ([1]; 0.1 mkg/kg): 1.9 ± 0.7
- Small round Amount ([1]; 0.1 mkg/kg): 2.8 ± 0.7
- Small round Size ([1]; 0.1 mkg/kg): 0.8 ± 0.2
- Total Amount ([1]; 0.1 mkg/kg): 7.5 ± 1.0
- Total Size ([1]; 0.1 mkg/kg): 4.1 ± 0.9
- # Lesions [1, 4]: 8.3 ± 1.7
- % Animals with Ulcers [1, 4]: 100%
- GA1 (gastroprotective activity calculated for number of lesions) [1, 4]: 2.57
- GA2 (gastroprotective activity calculated for lesion size) [1, 4]: 5.51
- Lesion Size [1, 4]: 4.1 ± 1.6
- PI [1, 4]: 8.3
- Ulcer Index [1, 4]: 4.1
- Large round Amount ([1]; 10.0 mkg/kg): 3.5 ± 0.9
- Large round Size ([1]; 10.0 mkg/kg): 1.7 ± 0.6
- Linear Amount ([1]; 10.0 mkg/kg): 1.2 ± 0.5
- Linear Size ([1]; 10.0 mkg/kg): 1.8 ± 1.1
- Small round Amount ([1]; 10.0 mkg/kg): 3.6 ± 1.3
- Small round Size ([1]; 10.0 mkg/kg): 0.5 ± 0.1
- Total Amount ([1]; 10.0 mkg/kg): 8.3 ± 1.7
- Total Size ([1]; 10.0 mkg/kg): 4.1 ± 1.6
- size of the lesions in the gastric mucosa reduced ([1]; preventive treatment, indomethacin-induced lesions): 5 times
- animals survived ([2]; 0.1 mkg/kg): 9 out of 10
- animals survived ([2]; on the 5th day, control 7 out of 10): 9 out of 10
